Test results taken from ChEMBL document CHEMBL5055633, “Amphipathic Barbiturates as Mimics of Antimicrobial Peptides and the Marine Natural Products Eusynstyelamides with Activity against Multi-resistant Clinical Isolates” (J Med Chem, 2021).

Assays:
Escherichia coli [1] = experiment: Antimicrobial activity against imipenem-type carbapenemase-26 producing Escherichia coli 50857972 assessed as reduction in bacterial growth incubated for 48 hrs by microdilution method; type: functional
[2] = Antimicrobial activity against carbapenemase producing Klebsiella pneumoniae K47-25 assessed as reduction in bacterial growth incubated for 48 hrs by microdilution method; type: functional
Enterococcus faecium [3] = experiment: Antimicrobial activity against extended spectrum-lactamase-carbapenemas producing Enterococcus faecium strain 50758899 assessed as reduction in bacterial growth incubated for 48 hrs by microdilution method; type: functional
Acinetobacter baumannii [4] = experiment: Antimicrobial activity against oxacillinase-24 producing Acinetobacter baumannii K55-13 assessed as reduction in bacterial growth incubated for 48 hrs by microdilution method; type: functional
Enterococcus faecium [5] = experiment: Antimicrobial activity against extended spectrum-lactamase-carbapenemas producing Enterococcus faecium strain TUH.50-22 assessed as reduction in bacterial growth incubated for 48 hrs by microdilution method; type: functional
Acinetobacter baumannii [6] = experiment: Antimicrobial activity against oxacillinase-58 producing Acinetobacter baumannii K12-21 assessed as reduction in bacterial growth incubated for 48 hrs by microdilution method; type: functional
Escherichia coli [7] = experiment: Antimicrobial activity against New Delhi metallo-beta lactamase-1 producing Escherichia coli 50739822 assessed as reduction in bacterial growth incubated for 48 hrs by microdilution method; type: functional
Staphylococcus aureus [8] = experiment: Antimicrobial activity against extended spectrum-lactamase-carbapenemas producing Staphylococcus aureus strain WIS assessed as reduction in bacterial growth incubated for 48 hrs by microdilution method; type: functional
[9] = Antimicrobial activity against verona integron-encoded metallo-beta-lactamase -1 producing Klebsiella pneumoniae 50667959 assessed as reduction in bacterial growth incubated for 48 hrs by microdilution method; type: functional
Pseudomonas aeruginosa [10] = experiment: Antimicrobial activity against Pseudomonas aeruginosa PAO1 assessed as reduction in bacterial growth incubated for 48 hrs by microdilution susceptibility test; type: functional
Escherichia coli [11] = experiment: Antimicrobial activity against oxacillinase-producing Escherichia coli 50579417 assessed as reduction in bacterial growth incubated for 48 hrs by microdilution method; type: functional
Acinetobacter baumannii [12] = experiment: Antimicrobial activity against oxacillinase-23 producing Acinetobacter baumannii K63-58 assessed as reduction in bacterial growth incubated for 48 hrs by microdilution method; type: functional
Enterococcus faecium [13] = experiment: Antimicrobial activity against extended spectrum-lactamase-carbapenemas producing Enterococcus faecium strain 50901530 assessed as reduction in bacterial growth incubated for 48 hrs by microdilution method; type: functional
Pseudomonas aeruginosa [14] = experiment: Antimicrobial activity against verona integron-encoded metallo-beta-lactamase-2 producing Pseudomonas aeruginosa K34-7 assessed as reduction in bacterial growth incubated for 48 hrs by microdilution method; type: functional
[15] = test system: Corynebacterium glutamicum; experiment: Antimicrobial activity against Corynebacterium glutamicum ATCC 13032 assessed as reduction in bacterial growth incubated for 48 hrs by microdilution susceptibility test; type: functional
Pseudomonas aeruginosa [16] = experiment: Antimicrobial activity against imipenem-type carbapenemase-14 producing Pseudomonas aeruginosa K44-24 assessed as reduction in bacterial growth incubated for 48 hrs by microdilution method; type: functional
Escherichia coli [17] = experiment: Antimicrobial activity against Escherichia coli ATCC 25922 assessed as reduction in bacterial growth incubated for 48 hrs by microdilution susceptibility test; type: functional
Staphylococcus aureus [18] = experiment: Antimicrobial activity against extended spectrum-lactamase-carbapenemas producing Staphylococcus aureus NCTC 10442 assessed as reduction in bacterial growth incubated for 48 hrs by microdilution method; type: functional
Staphylococcus aureus [19] = experiment: Antimicrobial activity against extended spectrum-lactamase-carbapenemas producing Staphylococcus aureus strain 85/2082 assessed as reduction in bacterial growth incubated for 48 hrs by microdilution method; type: functional
[20] = Antimicrobial activity against New Delhi metallo-beta lactamase-1 and oxacillinase -181 producing Klebsiella pneumoniae 50531633 assessed as reduction in bacterial growth incubated for 48 hrs by microdilution method; type: functional
[21] = Antimicrobial activity against oxacillinase-245 producing Klebsiella pneumoniae 50625602 assessed as reduction in bacterial growth incubated for 48 hrs by microdilution method; type: functional
HepG2 = experiment: Cytotoxicity against human HepG2 cells assessed as reduction in cell viability incubated for 24 hrs by colorimetric tetrazolium assay; type: functional, cell-based; conditions: HepG2, 24 h
Acinetobacter baumannii [22] = experiment: Antimicrobial activity against oxacillinase-23 producing Acinetobacter baumannii K44-35 assessed as reduction in bacterial growth incubated for 48 hrs by microdilution method; type: functional
Escherichia coli [23] = experiment: Antimicrobial activity against New Delhi metallo-beta lactamase-1 producing Escherichia coli 50676002 assessed as reduction in bacterial growth incubated for 48 hrs by microdilution method; type: functional
Staphylococcus aureus [24] = experiment: Antimicrobial activity against extended spectrum-lactamase-carbapenemas producing Staphylococcus aureus strain IHT 99040 assessed as reduction in bacterial growth incubated for 48 hrs by microdilution method; type: functional
Staphylococcus aureus [25] = experiment: Antimicrobial activity against Staphylococcus aureus ATCC 9144 assessed as reduction in bacterial growth incubated for 48 hrs by microdilution susceptibility test; type: functional
Enterococcus faecium [26] = experiment: Antimicrobial activity against extended spectrum-lactamase-carbapenemas producing Enterococcus faecium strain 50673722 assessed as reduction in bacterial growth incubated for 48 hrs by microdilution method; type: functional
Escherichia coli [27] = experiment: Antimicrobial activity against verona integron-encoded metallo-beta-lactamase-29-producing Escherichia coli 50639799 assessed as reduction in bacterial growth incubated for 48 hrs by microdilution method; type: functional
Acinetobacter baumannii [28] = experiment: Antimicrobial activity against oxacillinase-23 producing Acinetobacter baumannii K47-42 assessed as reduction in bacterial growth incubated for 48 hrs by microdilution method; type: functional
Enterococcus faecium [29] = experiment: Antimicrobial activity against extended spectrum-lactamase-carbapenemas producing Enterococcus faecium strain K36-18 assessed as reduction in bacterial growth incubated for 48 hrs by microdilution method; type: functional
[30] = Hemolytic activity in human erythrocytes incubated for 1 hr by microplate reader; type: functional, cell-based; conditions: erythrocyte
[31] = Antimicrobial activity against New Delhi metallo-beta lactamase-1 Klebsiella pneumoniae K66-45 assessed as reduction in bacterial growth incubated for 48 hrs by microdilution method; type: functional
Staphylococcus aureus [32] = experiment: Antimicrobial activity against extended spectrum-lactamase-carbapenemas producing Staphylococcus aureus N315 assessed as reduction in bacterial growth incubated for 48 hrs by microdilution method; type: functional
MRC5 = experiment: Cytotoxicity against human MRC5 cells assessed as reduction in cell viability incubated for 24 hrs by colorimetric tetrazolium assay; type: functional, cell-based; conditions: MRC5, 24 h
Pseudomonas aeruginosa [33] = experiment: Antimicrobial activity against verona integron-encoded metallo-beta-lactamase-4 producing Pseudomonas aeruginosa K34-73 assessed as reduction in bacterial growth incubated for 48 hrs by microdilution method; type: functional
Pseudomonas aeruginosa [34] = experiment: Antimicrobial activity against verona integron-encoded metallo-beta-lactamase producing Pseudomonas aeruginosa 50692520 assessed as reduction in bacterial growth incubated for 48 hrs by microdilution method; type: functional
Pseudomonas aeruginosa [35] = experiment: Antimicrobial activity against New Delhi metallo-beta lactamase-1 producing Pseudomonas aeruginosa 50692172 assessed as reduction in bacterial growth incubated for 48 hrs by microdilution method; type: functional

Row | Structure (SMILES) | MIC (Escherichia coli [1]) | MIC [2] | MIC (Enterococcus faecium [3]) | MIC (Acinetobacter baumannii [4]) | MIC (Enterococcus faecium [5]) | MIC (Acinetobacter baumannii [6]) | MIC (Escherichia coli [7]) | MIC (Staphylococcus aureus [8]) | MIC [9] | MIC (Pseudomonas aeruginosa [10]) | MIC (Escherichia coli [11]) | MIC (Acinetobacter baumannii [12]) | MIC (Enterococcus faecium [13]) | MIC (Pseudomonas aeruginosa [14]) | MIC [15] | MIC (Pseudomonas aeruginosa [16]) | MIC (Escherichia coli [17]) | MIC (Staphylococcus aureus [18]) | MIC (Staphylococcus aureus [19]) | MIC [20] | further results
1 | CC(C)(C)c1ccc(CC2(Cc3ccc(C(C)(C)C)cc3)C(=O)N(CCCCNC(=N)N)C(=O)N(CCCCNC(=N)N)C2=O)cc1.O=C(O)C(F)(F)F.O=C(O)C(F)(F)F | 4 µg/mL | 4 µg/mL | 2 µg/mL | 8 µg/mL | 2 µg/mL | 4 µg/mL | 4 µg/mL | 2 µg/mL | 16 µg/mL | 4 µg/mL | 4 µg/mL | 4 µg/mL | 4 µg/mL | 16 µg/mL | < 0.13 µg/mL | 16 µg/mL | 2 µg/mL | 2 µg/mL | 2 µg/mL | 4 µg/mL | MIC [21]: 4 µg/mL; IC50 (HepG2): 28 µg/mL; MIC (Acinetobacter baumannii [22]): 8 µg/mL; MIC (Escherichia coli [23]): 4 µg/mL; MIC (Staphylococcus aureus [24]): 2 µg/mL; MIC (Staphylococcus aureus [25]): 1 µg/mL; MIC (Enterococcus faecium [26]): 2 µg/mL; MIC (Escherichia coli [27]): 4 µg/mL; MIC (Acinetobacter baumannii [28]): 8 µg/mL; MIC (Enterococcus faecium [29]): 2 µg/mL; EC50 [30]: 77 µg/mL; MIC [31]: 4 µg/mL; MIC (Staphylococcus aureus [32]): 2 µg/mL; IC50 (MRC5): 14 µg/mL; MIC (Pseudomonas aeruginosa [33]): 8 µg/mL; MIC (Pseudomonas aeruginosa [34]): 16 µg/mL; MIC (Pseudomonas aeruginosa [35]): 16 µg/mL
2 | CC(C)(C)c1cc(CC2(Cc3cc(C(C)(C)C)cc(C(C)(C)C)c3)C(=O)N(CCCCN)C(=O)N(CCCCN)C2=O)cc(C(C)(C)C)c1.O=C(O)C(F)(F)F.O=C(O)C(F)(F)F | 4 µg/mL | 16 µg/mL | 2 µg/mL | 4 µg/mL | 2 µg/mL | 4 µg/mL | 4 µg/mL | 2 µg/mL | 8 µg/mL | 4 µg/mL | 4 µg/mL | 4 µg/mL | 2 µg/mL | 8 µg/mL | 0.25 µg/mL | 8 µg/mL | 2 µg/mL | 2 µg/mL | 2 µg/mL | 8 µg/mL | MIC [21]: 8 µg/mL; IC50 (HepG2): 2 µg/mL; MIC (Acinetobacter baumannii [22]): 4 µg/mL; MIC (Escherichia coli [23]): 8 µg/mL; MIC (Staphylococcus aureus [24]): 2 µg/mL; MIC (Staphylococcus aureus [25]): 1 µg/mL; MIC (Enterococcus faecium [26]): 2 µg/mL; MIC (Escherichia coli [27]): 4 µg/mL; MIC (Acinetobacter baumannii [28]): 4 µg/mL; MIC (Enterococcus faecium [29]): 2 µg/mL; EC50 [30]: < 5 µg/mL; MIC [31]: 8 µg/mL; MIC (Staphylococcus aureus [32]): 2 µg/mL; IC50 (MRC5): 1 µg/mL; MIC (Pseudomonas aeruginosa [33]): 16 µg/mL; MIC (Pseudomonas aeruginosa [34]): 8 µg/mL; MIC (Pseudomonas aeruginosa [35]): 8 µg/mL
